Biological target: T1, purified recombinantly expressed human SSAO (Homo sapiens, UniProt Q16853)
T1 construct: made in house
T1 sequence (Q16853 29-763 limits assumed): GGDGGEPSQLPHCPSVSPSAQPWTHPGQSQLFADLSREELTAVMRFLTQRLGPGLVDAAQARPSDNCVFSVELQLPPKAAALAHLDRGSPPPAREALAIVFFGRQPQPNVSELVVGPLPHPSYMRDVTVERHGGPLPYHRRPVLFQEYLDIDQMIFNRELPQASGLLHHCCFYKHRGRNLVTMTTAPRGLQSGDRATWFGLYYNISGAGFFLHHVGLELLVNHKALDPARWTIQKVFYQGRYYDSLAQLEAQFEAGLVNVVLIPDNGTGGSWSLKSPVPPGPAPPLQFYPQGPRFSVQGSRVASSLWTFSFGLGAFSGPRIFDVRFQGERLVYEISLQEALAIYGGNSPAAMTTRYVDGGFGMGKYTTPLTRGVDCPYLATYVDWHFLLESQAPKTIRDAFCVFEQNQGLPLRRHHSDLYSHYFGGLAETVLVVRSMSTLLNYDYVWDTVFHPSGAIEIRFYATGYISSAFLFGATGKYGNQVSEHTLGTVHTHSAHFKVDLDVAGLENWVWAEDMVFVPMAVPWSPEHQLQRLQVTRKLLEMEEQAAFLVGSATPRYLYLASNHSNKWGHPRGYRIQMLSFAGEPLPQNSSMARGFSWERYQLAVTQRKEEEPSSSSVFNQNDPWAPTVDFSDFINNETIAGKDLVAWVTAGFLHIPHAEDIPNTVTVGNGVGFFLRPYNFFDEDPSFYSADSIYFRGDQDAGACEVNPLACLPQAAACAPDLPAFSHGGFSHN
Assay: SSAO enzyme inhibition assay (benzylamine substrate; hydrogen peroxide/HRP-coupled or 14C-benzaldehyde detection)
Assay type: biochemical
Conditions: human recombinant SSAO, benzylamine as substrate, rt
Method: All primary assays were performed in rt with purified recombinantly expressed human SSAO. Enzyme was prepared essentially as described in Öhman et al. (Protein Expression and Purification 46 (2006) 321-331). In addition, secondary- and selectivity assays were performed using SSAO prepared from various tissues or purified rat recombinant SSAO. The enzyme activity was assayed with benzylamine as substrate by measuring either benzaldehyde production, using ^14C-labeled substrate, or by utilizing the production of hydrogen peroxide in a horseradish peroxidise (HRP) coupled reaction. Briefly, test compounds were dissolved in dimethyl sulfoxide (DMSO) to a concentration of 10 mM. Dose-response measurements were assayed by either creating 1:10 serial dilutions in DMSO to produce a 7 point curve or by making 1:3 serial dilutions in DMSO to produce 11 point curves. The top concentrations were adjusted depending on the potency of the compounds and subsequent dilution in reaction buffer yielded a final DMSO concentration≦2%.
In a horseradish peroxidise (HRP) coupled reaction, hydrogen peroxide oxidation of 10-acetyl-3,7-dihydroxyphenoxazine produced resorufin, which is a highly fluorescent compound (Zhout and Panchuk-Voloshina. Analytical Biochemistry 253 (1997) 169-174; Amplex® Red Hydrogen Peroxide/peroxidise Assay kit, Invitrogen A22188). Enzyme and compounds in 50 mM sodium phosphate, pH 7.4 were set to pre-incubate in flat-bottomed microtiter plates for approximately 15 minutes before initiating the reaction by addition of a mixture of HRP, benzylamine and Amplex reagent. Benzylamine concentration was fixed at a concentration corresponding to the Michaelis constant, determined using standard procedures. Fluorescence intensity was then measured at several time points during 1-2 hours, exciting at 544 nm and reading the emission at 590 nm. For the human SSAO assay final concentrations of the reagents in the assay wells were: SSAO enzyme […], benzylamine 100 μM, Amplex reagent 20 μM, HRP 0.1 U/mL and varying concentrations of test compound. The inhibition was measured as % decrease of the signal compared to a control without inhibitor (only diluted DMSO). The background signal from a sample containing no SSAO enzyme was subtracted from all data points. Data was fitted to a four parameter logistic model and IC50 values were calculated using the GraphPad Prism 4 or XLfit 4 programs.
SSAO activity was assayed using 14C-labeled benzylamine and analysed by measuring radioactive benzaldehyde. […] Phase separation occurred instantly and activity was read in a Topcount scintillation counter (Perkin-Elmer). […] Data was analysed as above.

IC50 | Structure (SMILES)
155 nM | O=C(c1ccc2nc(-c3ccc(Cl)cc3)c(CO)n2c1)N1CCC(CO)CC1 [Example 62, (1-{[2-(4-Chlorophenyl)-3-(hydroxymethyl)imidazo[1,2-a]pyridin-6-yl]carbonyl}piperidin-4-yl)methanol]
248 nM | COc1cccc(-c2nc3cnc(Br)cn3c2CO)c1 [Example 81, [6-Bromo-2-(3-methoxyphenyl)imidazo[1,2-a]pyrazin-3-yl]methanol]
89 nM | CC(O)c1cn2c(CO)c(-c3ccc(Cl)cc3)nc2s1 (stereo not shown) [Example 106, 1-[6-(4-Chlorophenyl)-5-(hydroxymethyl)imidazo[2,1-b][1,3]thiazol-2-yl]ethanol]

Structure (SMILES) | IC50
OCc1c(-c2ccc(Br)cc2)nc2ccc(C(F)(F)F)cn12 [Example 23, [2-(4-Bromophenyl)-6-(trifluoromethyl)imidazo[1,2-a]pyridin-3-yl]methanol] | 88 nM

Reference: patent US20150239905A1, “IMIDAZOPYRIDINE COMPOUNDS” (Proximagen Limited, priority 2008, published 2015)
